Test results published in ChEMBL document CHEMBL1138682, “Fluorescent pirenzepine derivatives as potential bitopic ligands of the human M1 muscarinic receptor” (J Med Chem, 2004).

Assays:
[1] = target: T1, Muscarinic acetylcholine receptor M1 (Homo sapiens, UniProt P11229); assay: Apparent dissociation constant for human muscarinic receptor M1 from FRET based binding assay
T1 sequence (P11229 whole entry): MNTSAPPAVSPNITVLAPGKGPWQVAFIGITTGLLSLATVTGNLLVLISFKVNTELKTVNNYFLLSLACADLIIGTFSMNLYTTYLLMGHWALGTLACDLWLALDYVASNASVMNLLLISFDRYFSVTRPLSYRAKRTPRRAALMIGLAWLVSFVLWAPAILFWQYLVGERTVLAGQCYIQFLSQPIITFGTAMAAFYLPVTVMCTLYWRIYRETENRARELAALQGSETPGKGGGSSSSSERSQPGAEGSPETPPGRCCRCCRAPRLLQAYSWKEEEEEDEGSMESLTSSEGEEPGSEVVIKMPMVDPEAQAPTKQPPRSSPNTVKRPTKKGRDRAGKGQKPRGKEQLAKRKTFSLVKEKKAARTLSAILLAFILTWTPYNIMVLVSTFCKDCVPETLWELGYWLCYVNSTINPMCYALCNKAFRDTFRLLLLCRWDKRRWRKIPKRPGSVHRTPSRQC

[2] = target: T1, Muscarinic acetylcholine receptor M1; assay: Inhibition of [3H]QNB binding to human muscarinic receptor M1
[3] = target: T2, Muscarinic acetylcholine receptor M1 (Homo sapiens) (UniProt P11229)
T2 sequence (whole entry): T1 sequence (P11229 whole entry)

[4] = target: T2, Muscarinic acetylcholine receptor M1 (Homo sapiens); conditions: 100 nM
[5] = target: T2, Muscarinic acetylcholine receptor M1 (Homo sapiens); conditions: 100 nM; remark: listed apart in the source
[6] = target: T2, Muscarinic acetylcholine receptor M1 (Homo sapiens); assay: Dissociation rate constant for human muscarinic receptor at 200 nM with 100 uM brucine
[7] = target: T2, Muscarinic acetylcholine receptor M1 (Homo sapiens); assay: Dissociation rate constant for human muscarinic receptor at 200 nM with 500 uM brucine
[8] = target: T2, Muscarinic acetylcholine receptor M1 (Homo sapiens); assay: Dissociation rate constant for human muscarinic receptor at 500 nM with 100 uM brucine
[9] = target: T2, Muscarinic acetylcholine receptor M1 (Homo sapiens); assay: Dissociation rate constant for human muscarinic receptor at 500 nM with 500 uM brucine
[10] = target: T2, Muscarinic acetylcholine receptor M1 (Homo sapiens); conditions: 300 nM
[11] = target: T2, Muscarinic acetylcholine receptor M1 (Homo sapiens); conditions: 300 nM; remark: listed apart in the source

Row | Kd [1] [nM] | Ki [2] [nM] | E [3] | Dissociation rate constant [4] | Dissociation rate constant [5] | Dissociation rate constant [6] | Dissociation rate constant [7] | Dissociation rate constant [8] | Dissociation rate constant [9] | Dissociation rate constant [10] | Dissociation rate constant [11] | SMILES
1 | 12.9 | 8.8 | 0.63 | 7.2e-05 1/S | 0.0002 1/S |  |  |  |  |  |  | O=C(CCC1=[N+]2C(=Cc3ccc(-c4cccs4)n3[B-]2(F)F)C=C1)NCCCCCCN1CCN(CC(=O)N2c3ccccc3C(=O)Nc3cccnc32)CC1
2 |  | > 1000 |  |  |  |  |  |  |  |  |  | O=C(CCC1=[N+]2C(=Cc3ccc(-c4cccs4)n3[B-]2(F)F)C=C1)NCCN1CCN(CC(=O)N2c3ccccc3C(=O)Nc3cccnc32)CC1
3 | 12.7 | 55.1 | 0.51 |  |  | 0.00144 1/S | 0.00146 1/S |  |  |  |  | O=C(CCCCCNC(=O)CCC1=[N+]2C(=Cc3ccc(-c4cccs4)n3[B-]2(F)F)C=C1)NCCCCCC(=O)NCCCCN1CCN(CC(=O)N2c3ccccc3C(=O)Nc3cccnc32)CC1
4 |  | > 1000 |  |  |  |  |  |  |  |  |  | CNC(=O)CCC1=[N+]2C(=Cc3ccc(-c4cccs4)n3[B-]2(F)F)C=C1
5 | 21.9 | 45.4 | 0.6 |  |  | 0.00025 1/S | 0.00013 1/S |  |  |  |  | O=C(CCC1=[N+]2C(=Cc3ccc(-c4cccs4)n3[B-]2(F)F)C=C1)NCCOCCOCCN1CCN(CC(=O)N2c3ccccc3C(=O)Nc3cccnc32)CC1
6 | 4.1 | 8.9 | 0.53 | 0.00025 1/S | 0.00023 1/S |  |  |  |  |  |  | O=C(CCC1=[N+]2C(=Cc3ccc(-c4cccs4)n3[B-]2(F)F)C=C1)NCCOCCOCCOCCOCCOCCOCCN1CCN(CC(=O)N2c3ccccc3C(=O)Nc3cccnc32)CC1
7 | 18.7 | 53.5 | 0.68 |  |  |  |  | 0.00062 1/S | 0.00051 1/S |  |  | CCN(CC)c1ccc2c(-c3ccc(S(=O)(=O)NCCCCCC(=O)NCCOCCOCCN4CCN(CC(=O)N5c6ccccc6C(=O)Nc6cccnc65)CC4)cc3S(=O)(=O)[O-])c3ccc(=[N+](CC)CC)cc-3oc2c1
8 | 35.7 | 135 | 0.6 |  |  |  |  |  |  | 0.00039 1/S | 0.000353 1/S | CCN1/C(=C/C=C/C2N(CCCCCC(=O)NCCOCCOCCN3CCN(CC(=O)N4c5ccccc5C(=O)Nc5cccnc54)CC3)c3ccc(S(=O)(=O)O)cc3C2(C)C)C(C)(C)c2cc(S(=O)(=O)O)ccc21 (configuration not stated)
